Experimental data published in patent US11020395B2, “Cycloalkyl substituted triazole compounds as agonists of the APJ receptor” (AMGEN INC., priority 2016, dated 2021).

Target: human APJ receptor (Homo sapiens (Human), UniProt P35414)
Test: [35S]GTPγS binding assay on membranes from CHO cells stably expressing human APJ receptor
Assay type: biochemical
Conditions: [35S]GTPγS SPA, read-out: Activity hAPJ SPA EC50 IP
Summary of the method: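 Agonist-stimulated [35S]GTPγS binding measured on membranes of a stable human APJ CHO line, 90 min at room temperature, with GDP, MgCl2 and NaCl levels optimized beforehand. Means of independent runs fitted by non-linear regression to give EC50.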

human APJ receptor, sequence (P35414 whole entry): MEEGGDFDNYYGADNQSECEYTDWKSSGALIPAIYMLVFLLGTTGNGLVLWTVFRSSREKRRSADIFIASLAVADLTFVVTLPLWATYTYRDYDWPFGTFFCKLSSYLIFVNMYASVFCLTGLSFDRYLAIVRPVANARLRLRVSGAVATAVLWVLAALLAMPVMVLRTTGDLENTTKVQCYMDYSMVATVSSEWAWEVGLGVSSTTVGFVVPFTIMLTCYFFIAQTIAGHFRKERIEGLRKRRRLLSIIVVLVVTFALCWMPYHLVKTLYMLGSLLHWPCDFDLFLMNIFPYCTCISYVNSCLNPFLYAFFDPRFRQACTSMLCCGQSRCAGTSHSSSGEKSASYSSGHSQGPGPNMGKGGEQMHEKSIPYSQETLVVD

Molecule	EC50 [nM]
COc1ncnc(OC)c1-n1c(NS(=O)(=O)[C@@H](C)[C@H](OC)c2ncc(Cl)cn2)nnc1[C@H]1CC[C@@H]1F (single isomer, unassigned) [Example 181.0, (1R,2S)-1-(5-chloropyrimidin-2-yl)-N-(4-(4,6-dimethoxypyrimidin-5-yl)-5-((1R,2S)-2-fluorocyclobutyl)-4H-1,2,4-triazol-3-yl)-1-methoxypropane-2-sulfonamide or (1R,2S)-1-(5-chloropyrimidin-2-yl)-N-(4-(4,6-dimethoxypyrimidin-5-yl)-5-((1S,2R)-2-fluorocyclobutyl)-4H-1,2,4-triazol-3-yl)-1-methoxypropane-2-sulfonamide]	32
COc1ncnc(OC)c1-n1c(NS(=O)(=O)[C@@H](C)[C@H](OC)c2ncc(Cl)cn2)nnc1[C@H]1CC[C@H]1C (single isomer, unassigned) [Example 188.0, (1R,2S)-1-(5-chloropyrimidin-2-yl)-N-(4-(4,6-dimethoxypyrimidin-5-yl)-5-((1S,2R)-2-methylcyclobutyl)-4H-1,2,4-triazol-3-yl)-1-methoxypropane-2-sulfonamide or (1R,2S)-1-(5-chloropyrimidin-2-yl)-N-(4-(4,6-dimethoxypyrimidin-5-yl)-5-((1R,2S)-2-methylcyclobutyl)-4H-1,2,4-triazol-3-yl)-1-methoxypropane-2-sulfonamide]	14
COc1ncnc(OC)c1-n1c(NS(=O)(=O)[C@@H](C)[C@H](OC)c2ncc(Cl)cn2)nnc1C1CCCCC1 [Example 6.0, (1R,2S)-1-(5-chloro-2-pyrimidinyl)-N-(5-cyclohexyl-4-(4,6-dimethoxy-5-pyrimidinyl)-4H-1,2,4-triazol-3-yl)-1-methoxy-2-propanesulfonamide]	7.5
COc1cccc(OC)c1-n1c(NS(=O)(=O)[C@@H](C)[C@H](OC)c2ncc(Cl)cn2)nnc1[C@H]1CC[C@H](OC)C1 (single isomer, unassigned) [Example 214.0]	20
COc1ncnc(OC)c1-n1c(NS(=O)(=O)[C@@H](C)[C@H](OC)c2ncc(Cl)cn2)nnc1C1CC(Cl)(Cl)C1 [Example 203.0, (1R,2S)-1-(5-chloropyrimidin-2-yl)-N-(5-(3,3-dichlorocyclobutyl)-4-(4,6-dimethoxypyrimidin-5-yl)-4H-1,2,4-triazol-3-yl)-1-methoxypropane-2-sulfonamide]	10
COc1cccc(OC)c1-n1c(NS(=O)(=O)[C@@H](C)[C@@H](OC(C)C)c2ncc(C)cn2)nnc1[C@H]1C[C@@](C)(O)C1 (single isomer, unassigned) [Example 231.0, (1S,2S)-N-(4-(2,6-dimethoxyphenyl)-5-(trans-3-hydroxy-3-methylcyclobutyl)-4H-1,2,4-triazol-3-yl)-1-(5-methyl-2-pyrimidinyl)-1-(2-propanyloxy)-2-propanesulfonamide or (1S,2S)-N-(4-(2,6-dimethoxyphenyl)-5-(cis-3-hydroxy-3-methylcyclobutyl)-4H-1,2,4-triazol-3-yl)-1-(5-methyl-2-pyrimidinyl)-1-(2-propanyloxy)-2-propanesulfonamide]	220
COc1cccc(OC)c1-n1c(NS(=O)(=O)[C@@H](C)[C@H](OC)c2ncc(Cl)cn2)nnc1[C@H]1CCC1(F)F (single isomer, unassigned) [Example 159.0, (1R,2S)-1-(5-chloropyrimidin-2-yl)-N-(5-((R)-2,2-difluorocyclobutyl)-4-(2,6-dimethoxyphenyl)-4H-1,2,4-triazol-3-yl)-1-methoxypropane-2-sulfonamide or (1R,2S)-1-(5-chloropyrimidin-2-yl)-N-(5-((S)-2,2-difluorocyclobutyl)-4-(2,6-dimethoxyphenyl)-4H-1,2,4-triazol-3-yl)-1-methoxypropane-2-sulfonamide]	8
COc1cccc(OC)c1-n1c(NS(=O)(=O)[C@@H](C)[C@H](OC)c2ncc(Cl)cn2)nnc1[C@H]1C[C@H](F)C1 (single isomer, unassigned) [Example 152.0, (1R,2S)-1-(5-chloropyrimidin-2-yl)-N-(4-(2,6-dimethoxyphenyl)-5-((1r,3S)-3-fluorocyclobutyl)-4H-1,2,4-triazol-3-yl)-1-methoxypropane-2-sulfonamide or (1R,2S)-1-(5-chloropyrimidin-2-yl)-N-(4-(2,6-dimethoxyphenyl)-5-((1s,3R)-3-fluorocyclobutyl)-4H-1,2,4-triazol-3-yl)-1-methoxypropane-2-sulfonamide]	4.2
COc1ncnc(OC)c1-n1c(NS(=O)(=O)[C@@H](C)[C@H](OC)c2ncc(C)cn2)nnc1C1CC2(CC2)C1 [Example 201.0]	11
COc1ncnc(OC)c1-n1c(NS(=O)(=O)[C@@H](C)[C@H](OC)c2ncc(Cl)cn2)nnc1[C@H]1C[C@](C)(F)C1 (single isomer, unassigned) [Example 237.0, (1R,2S)-1-(5-chloropyrimidin-2-yl)-N-(4-(4,6-dimethoxypyrimidin-5-yl)-5-((1s,3S)-3-fluoro-3-methylcyclobutyl)-4H-1,2,4-triazol-3-yl)-1-methoxypropane-2-sulfonamide or (1R,2S)-1-(5-chloropyrimidin-2-yl)-N-(4-(4,6-dimethoxypyrimidin-5-yl)-5-((1r,3S)-3-fluoro-3-methylcyclobutyl)-4H-1,2,4-triazol-3-yl)-1-methoxypropane-2-sulfonamide]	30
(1R,2S)-1-(5-chloropyrimidin-2-yl)-N-(4-(2,6-dimethoxyphenyl)-5-((S)-spiro[2.2]pentan-1-yl)-4H-1,2,4-triazol-3-yl)-1-methoxypropane-2-sulfonamide or (1R,2S)-1-(5-chloropyrimidin-2-yl)-N-(4-(2,6-dimethoxyphenyl)-5-((R)-spiro[2.2]pentan-1-yl)-4H-1,2,4-triazol-3-yl)-1-methoxypropane-2-sulfonamide [Example 223.0]	1.2
COc1cccc(OC)c1-n1c(NS(=O)(=O)[C@@H](C)[C@H](OC)c2ncc(C)cn2)nnc1[C@H]1C[C@H](Cl)C1 (single isomer, unassigned) [Example 191.0, (1R,2S)-N-(5-((1r,3S)-3-chlorocyclobutyl)-4-(2,6-dimethoxyphenyl)-4H-1,2,4-triazol-3-yl)-1-methoxy-1-(5-methylpyrimidin-2-yl)propane-2-sulfonamide or (1R,2S)-N-(5-((1s,3R)-3-chlorocyclobutyl)-4-(2,6-dimethoxyphenyl)-4H-1,2,4-triazol-3-yl)-1-methoxy-1-(5-methylpyrimidin-2-yl)propane-2-sulfonamide]	7.5
COc1cccc(OC)c1-n1c(NS(=O)(=O)[C@@H](C)[C@H](OC)c2ncc(Cl)cn2)nnc1C1CC(C)(C)C1 [Example 119.0]	0.79
COc1cccc(OC)c1-n1c(NS(=O)(=O)[C@@H](C)[C@H](OC)c2ncc(Cl)cn2)nnc1[C@H]1C[C@H](OC)C1 (single isomer, unassigned) [Example 156.0, (1R,2S)-1-(5-chloropyrimidin-2-yl)-N-(4-(2,6-dimethoxyphenyl)-5-((1r,3S)-3-methoxycyclobutyl)-4H-1,2,4-triazol-3-yl)-1-methoxypropane-2-sulfonamide or (1R,2S)-1-(5-chloropyrimidin-2-yl)-N-(4-(2,6-dimethoxyphenyl)-5-((1s,3R)-3-methoxycyclobutyl)-4H-1,2,4-triazol-3-yl)-1-methoxypropane-2-sulfonamide]	11
COc1cccc(OC)c1-n1c(NS(=O)(=O)[C@@H](C)[C@H](OC)c2ncc(Cl)cn2)nnc1[C@H]1C[C@H](C)C1 [Example 148.0, (1R,2S)-1-(5-chloropyrimidin-2-yl)-N-(4-(2,6-dimethoxyphenyl)-5-((1r,3S)-3-methylcyclobutyl)-4H-1,2,4-triazol-3-yl)-1-methoxypropane-2-sulfonamide and (1R,2S)-1-(5-chloropyrimidin-2-yl)-N-(4-(2,6-dimethoxyphenyl)-5-((1r,3R)-3-methylcyclobutyl)-4H-1,2,4-triazol-3-yl)-1-methoxypropane-2-sulfonamide]	1.1
(1R,2S)-1-(5-chloropyrimidin-2-yl)-N-(4-(2,6-dimethoxyphenyl)-5-((R)-2,2-dimethylcyclopropyl)-4H-1,2,4-triazol-3-yl)-1-methoxypropane-2-sulfonamide or (1R,2S)-1-(5-chloropyrimidin-2-yl)-N-(4-(2,6-dimethoxyphenyl)-5-((S)-2,2-dimethylcyclopropyl)-4H-1,2,4-triazol-3-yl)-1-methoxypropane-2-sulfonamide [Example 22.0]	0.29
COc1cccc(OC)c1-n1c(NS(=O)(=O)[C@@H](C)[C@H](OC)c2ncc(Cl)cn2)nnc1C1CC(F)(F)C1 [Example 147.0]	6.4
CO[C@H](c1ncc(Cl)cn1)[C@H](C)S(=O)(=O)Nc1nnc(C2CCC2)n1C(C)C [Example 128.0]	330
(1R,2S)-1-(5-chloropyrimidin-2-yl)-N-(5-((R)-2,2-dimethylcyclopropyl)-4-(tetrahydro-2H-pyran-4-yl)-4H-1,2,4-triazol-3-yl)-1-methoxypropane-2-sulfonamide or (1R,2S)-1-(5-chloropyrimidin-2-yl)-N-(5-((S)-2,2-dimethylcyclopropyl)-4-(tetrahydro-2H-pyran-4-yl)-4H-1,2,4-triazol-3-yl)-1-methoxypropane-2-sulfonamide [Example 20.0]	840
CO[C@H](c1ncc(Cl)cn1)[C@H](C)S(=O)(=O)Nc1nnc([C@H]2C[C@H](CO)C2)n1C1CC1 (single isomer, unassigned) [Example 134.0, (1R,2S)-1-(5-chloro-2-pyrimidinyl)-N-(4-cyclopropyl-5-(trans-3-(hydroxymethyl)cyclobutyl)-4H-1,2,4-triazol-3-yl)-1-methoxy-2-propanesulfonamide or (1R,2S)-1-(5-chloro-2-pyrimidinyl)-N-(4-cyclopropyl-5-(cis-3-(hydroxymethyl)cyclobutyl)-4H-1,2,4-triazol-3-yl)-1-methoxy-2-propanesulfonamide]	1330
